In ChEMBL document CHEMBL1141945, “Synthesis and biological evaluation of novel (L)-alpha-amino acid methyl ester, heteroalkyl, and aryl substituted 1,4-naphthoquinone derivatives as antifungal and antibacterial agents” (2005):
Values after ≈ are worked out from the molar mass of the structure shown.

What was measured:
[1] = tested on: Pseudomonas aeruginosa; test: Antibacterial activity against Pseudomonas aeruginosa; assay type: functional
[2] = tested on: Staphylococcus aureus; test: Antibacterial activity against Staphylococcus aureus; assay type: functional
[3] = tested on: Klebsiella pneumoniae; test: Antibacterial activity against Klebsiella pneumoniae; assay type: functional
[4] = tested on: Candida albicans; test: Antifungal activity against Candida albicans; assay type: functional
[5] = tested on: Sporothrix schenckii; test: Antifungal activity against Sporothrix schenckii; assay type: functional
[6] = tested on: Enterococcus faecalis; test: Antibacterial activity against Streptococcus faecalis; assay type: functional
[7] = tested on: Escherichia coli; test: Antibacterial activity against Escherichia coli; assay type: functional
[8] = tested on: Cryptococcus neoformans; test: Antifungal activity against Cryptococcus neoformans; assay type: functional
[9] = tested on: Aspergillus fumigatus; test: Antifungal activity against Aspergillus fumigatus; assay type: functional
[10] = tested on: Trichophyton benhamiae; test: Antifungal activity against Trichophyton mentagrophytes; assay type: functional, Arthroderma benhamiae
[11] = tested on: Candida parapsilosis; test: Antifungal activity against Candida parapsilosis; assay type: functional; settings: Lodderomyces parapsilosis, ATCC 22019

Molecule	MIC [1] [µg/mL]	MIC [2] [µg/mL]	MIC [3] [µg/mL]	MIC [4] [µg/mL]	MIC [5] [µg/mL]	MIC [6] [µg/mL]	MIC [7] [µg/mL]	MIC [8] [µg/mL]	MIC [9] [µg/mL]	MIC [10] [µg/mL]	MIC [11] [µg/mL]	MIC90 [1] [µg/mL]	MIC90 [2] [µg/mL]	MIC90 [7] [µg/mL]	MIC90 [3] [µg/mL]
GENTAMICIN	0.78	0.78	0.39												
O=C1c2sc3nccn3c2C(=O)c2c(O)ccc(O)c21	> 50	50 (≈ 175 µM)	> 50	25 (≈ 87.3 µM)	< 12.5	25 (≈ 87.3 µM)	50 (≈ 175 µM)	< 12.5	> 50	25 (≈ 87.3 µM)					
O=C1C(=O)c2ccccc2C(O)=C1Sc1ncc[nH]1	> 50	50 (≈ 184 µM)	> 50	> 50	> 50	25 (≈ 91.8 µM)	> 50	50 (≈ 184 µM)	> 50	> 50	> 50				
OC(Cn1cncn1)(Cn1cncn1)c1ccc(F)cc1F [FLUCONAZOLE]				1 (≈ 3.27 µM)	2 (≈ 6.53 µM)			1 (≈ 3.27 µM)	2 (≈ 6.53 µM)	0.5 (≈ 1.63 µM)	2 (≈ 6.53 µM)				
COC(=O)C(CC(C)C)/N=C1\C=C(O)c2ccccc2C1=O (centres undefined)	> 50	12.5 (≈ 41.5 µM)	6.25 (≈ 20.7 µM)	> 50	> 50	12.5 (≈ 41.5 µM)	12.5 (≈ 41.5 µM)	25 (≈ 83 µM)	> 50	> 50	50 (≈ 166 µM)				
NCC[C@H](O)C(=O)N[C@@H]1C[C@H](N)[C@@H](O[C@H]2O[C@H](CN)[C@@H](O)[C@H](O)[C@H]2O)[C@H](O)[C@H]1O[C@H]1O[C@H](CO)[C@@H](O)[C@H](N)[C@H]1O [AMIKACIN]	2 (≈ 3.42 µM)	16 (≈ 27.3 µM)	1 (≈ 1.71 µM)			> 64	1 (≈ 1.71 µM)								
O=C1c2ccccc2C(=O)c2c1sc1nccn21	> 50	50 (≈ 197 µM)	> 50	50 (≈ 197 µM)	25 (≈ 98.3 µM)	25 (≈ 98.3 µM)	50 (≈ 197 µM)	12.5 (≈ 49.2 µM)	25 (≈ 98.3 µM)	25 (≈ 98.3 µM)					
COC(=O)C/N=C1\C=C(O)c2ccccc2C1=O				50 (≈ 204 µM)	50 (≈ 204 µM)			50 (≈ 204 µM)	25 (≈ 102 µM)	> 50	50 (≈ 204 µM)				
CC(C)N(C1=C(O)C(=O)c2ccccc2C1=O)C(C)C	50 (≈ 183 µM)	> 50	> 50			> 50	> 50								
C[C@@H]1[C@H](O)[C@@H](C)/C=C/C=C/C=C/C=C/C=C/C=C/C=C/[C@H](O[C@@H]2O[C@H](C)[C@@H](O)[C@H](N)[C@@H]2O)C[C@@H]2O[C@](O)(C[C@@H](O)C[C@@H](O)[C@H](O)CC[C@@H](O)C[C@@H](O)CC(=O)O[C@H]1C)C[C@H](O)[C@H]2C(=O)O [AMPHOTERICIN B]				0.39 (≈ 0.422 µM)				0.78 (≈ 0.844 µM)		1.56 (≈ 1.69 µM)					
NYSTATIN				7.8	13.2			3.5							
COC(=O)C(C)/N=C1\C=C(O)c2ccccc2C1=O (centres undefined)	> 50	> 50	25 (≈ 96.4 µM)			> 50	> 50								
COC(=O)C(CCSC)/N=C1\C=C(O)c2ccccc2C1=O (centres undefined)	> 50	> 50	6.25 (≈ 19.6 µM)	> 50	> 50	12.5 (≈ 39.1 µM)	> 50	25 (≈ 78.3 µM)	> 50	> 50	> 50				
Clc1ccc(COC(Cn2ccnc2)c2ccc(Cl)cc2Cl)c(Cl)c1 (centres undefined) [MICONAZOLE]				25 (≈ 60.1 µM)				12.5 (≈ 30 µM)	12.5 (≈ 30 µM)	< 0.78					
CC(C)N(C1=CC(=O)c2c(O)ccc(O)c2C1=O)C(C)C				> 50	> 50			> 50	> 50	50 (≈ 173 µM)					
COC(=O)C/N=C1/C(=O)c2ccccc2C(O)=C1O	50 (≈ 191 µM)	50 (≈ 191 µM)	> 50			50 (≈ 191 µM)	50 (≈ 191 µM)								
COC(=O)C(C)/N=C1/C(=O)c2ccccc2C(O)=C1O (centres undefined)				> 50	> 50			25 (≈ 90.8 µM)	> 50	> 50	50 (≈ 182 µM)				
COC(=O)C(CCSC)/N=C1/C(=O)c2ccccc2C(O)=C1O (centres undefined)	> 50	> 50	> 50	12.5 (≈ 37.3 µM)	25 (≈ 74.5 µM)	25 (≈ 74.5 µM)	> 50	12.5 (≈ 37.3 µM)	12.5 (≈ 37.3 µM)	12.5 (≈ 37.3 µM)	25 (≈ 74.5 µM)				
NC[C@H]1O[C@H](O[C@H]2[C@H](O)[C@@H](O[C@H]3O[C@H](CO)[C@@H](O)[C@H](N)[C@H]3O)[C@H](N)C[C@@H]2N)[C@H](N)C[C@@H]1O [TOBRAMYCIN]	4 (≈ 8.56 µM)	0.25 (≈ 0.535 µM)	1 (≈ 2.14 µM)			32 (≈ 68.4 µM)	0.5 (≈ 1.07 µM)								
NC[C@H]1O[C@H](O[C@H]2[C@H](O)[C@@H](O[C@H]3O[C@H](CO)[C@@H](O)[C@H](N)[C@H]3O)[C@H](N)C[C@@H]2N)[C@H](O)[C@@H](O)[C@@H]1O [KANAMYCIN]												> 128	2 (≈ 4.13 µM)	16 (≈ 33 µM)	32 (≈ 66 µM)
